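A five-concentration, 48-hour dose response in 96-well plates underlies each endpoint, interpolated linearly between surrounding concentrations. At the GI50, growth is halved.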 Activity calls are given as the source filed them. Rule as the data show it: active = GI50 up to about 1.1 µM and inactive = higher.
Key:
Assay in all cases: growth of human tumour cells (NCI), 48 h
Hs-578T = system: Hs-578T
U-251 = system: U-251
LOX IMVI = system: LOX IMVI
OVCAR-3 = system: OVCAR-3
EKVX = system: EKVX
A498 = system: A498
CAKI-1 = system: CAKI-1
RPMI-8226 = system: RPMI-8226
PC-3 = system: PC-3
MDA-MB-231 = system: MDA-MB-231
SK-MEL-5 = system: SK-MEL-5
HT-29 = system: HT-29
SN12C = system: SN12C
SK-MEL-28 = system: SK-MEL-28
SF-295 = system: SF-295
HCT-15 = system: HCT-15
SF-268 = system: SF-268
HCC 2998 = system: HCC 2998
ACHN = system: ACHN
MDA-MB-435 = system: MDA-MB-435
HOP-62 = system: HOP-62
OVCAR-8 = system: OVCAR-8
SK-OV-3 = system: SK-OV-3
HL-60 = system: HL-60
HCT-116 = system: HCT-116
IGROV-1 = system: IGROV-1
786-0 = system: 786-0
SR = system: SR
SW-620 = system: SW-620
HOP-92 = system: HOP-92
KM12 = system: KM12
NCI/ADR-RES = system: NCI/ADR-RES
T47D = system: T47D
OVCAR-5 = system: OVCAR-5
TK-10 = system: TK-10
OVCAR-4 = system: OVCAR-4
DU-145 = system: DU-145
RXF 393 = system: RXF 393
SNB-75 = system: SNB-75
M14 = system: M14
UACC-257 = system: UACC-257
MDA-N = system: MDA-N
A549 = system: A549
NCI-H522 = system: NCI-H522
K562 = system: K562
Malme-3M = system: Malme-3M
MCF7 = system: MCF7
UACC-62 = system: UACC-62
SK-MEL-2 = system: SK-MEL-2
UO-31 = system: UO-31
NCI-H226 = system: NCI-H226
MOLT-4 = system: MOLT-4
CCRF-CEM = system: CCRF-CEM
NCI-H23 = system: NCI-H23
NCI-H460 = system: NCI-H460
COLO 205 = system: COLO 205
BT-549 = system: BT-549
SF-539 = system: SF-539
SNB-19 = system: SNB-19

CC1(C)Cc2nc3c(cc2C(=O)C1/C=N/C(C#N)=C(\N)C#N)C(=O)C(/C=N/C(C#N)=C(\N)C#N)C(C)(C)C3 (stereo not drawn)
GI50 (Hs-578T): 0.916 µM (active)
GI50 (U-251): 2.04 µM (inactive)
GI50 (LOX IMVI): 2.09 µM (inactive)
GI50 (OVCAR-3): 2.77 µM (inactive)
GI50 (EKVX): 2.03 µM (inactive)
GI50 (A498): 4.17 µM (inactive)
GI50 (CAKI-1): 1.65 µM (inactive)
GI50 (RPMI-8226): 2.74 µM (inactive)
GI50 (PC-3): 1.99 µM (inactive)
GI50 (MDA-MB-231): 2.82 µM (inactive)
GI50 (SK-MEL-5): 2 µM (inactive)
GI50 (HT-29): 2.54 µM (inactive)
GI50 (SN12C): 2.06 µM (inactive)
GI50 (SK-MEL-28): 1.98 µM (inactive)
GI50 (SF-295): 2.54 µM (inactive)
GI50 (HCT-15): 2.36 µM
GI50 (SF-268): 1.64 µM (inactive)
GI50 (HCC 2998): 4.52 µM (inactive)
GI50 (ACHN): 2.28 µM (inactive)
GI50 (MDA-MB-435): 2.08 µM (inactive)
GI50 (HOP-62): 2.33 µM (inactive)
GI50 (OVCAR-8): 2.36 µM (inactive)
GI50 (SK-OV-3): 3.02 µM (inactive)
GI50 (HL-60): 2.04 µM (inactive)
GI50 (HCT-116): 1.54 µM (inactive)
GI50 (IGROV-1): 1.52 µM (inactive)
GI50 (786-0): 1.84 µM (inactive)
GI50 (SR): 3.08 µM (inactive)
GI50 (SW-620): 2.57 µM (inactive)
GI50 (HOP-92): 1.7 µM (inactive)
GI50 (KM12): 1.77 µM (inactive)
GI50 (NCI/ADR-RES): 6.47 µM (inactive)
GI50 (T47D): 1.32 µM (inactive)
GI50 (OVCAR-5): 2.34 µM (inactive)
GI50 (TK-10): 4.8 µM (inactive)
GI50 (OVCAR-4): 4.04 µM (inactive)
GI50 (DU-145): 2.3 µM (inactive)
GI50 (RXF 393): 1.68 µM (inactive)
GI50 (SNB-75): 1.66 µM (inactive)
GI50 (M14): 1.67 µM (inactive)
GI50 (UACC-257): 2.51 µM (inactive)
GI50 (MDA-N): 2.41 µM (inactive)
GI50 (A549): 2.6 µM (inactive)
GI50 (NCI-H522): 0.705 µM (active)
GI50 (K562): 3.05 µM (inactive)
GI50 (Malme-3M): 1.52 µM (inactive)
GI50 (MCF7): 2.15 µM (inactive)
GI50 (UACC-62): 1.83 µM (inactive)
GI50 (SK-MEL-2): 2.2 µM (inactive)
GI50 (UO-31): 1.84 µM (inactive)
GI50 (NCI-H226): 2.84 µM (inactive)
GI50 (MOLT-4): 2.37 µM (inactive)
GI50 (CCRF-CEM): 2.39 µM (inactive)
GI50 (NCI-H23): 2.71 µM (inactive)
GI50 (NCI-H460): 2.61 µM (inactive)
GI50 (COLO 205): 2.54 µM (inactive)
GI50 (BT-549): 2.19 µM (inactive)
GI50 (SF-539): 1.18 µM (inactive)
GI50 (SNB-19): 4.68 µM (inactive)

COc1cccc(-c2cc(O)c3cc(Cl)cnc3n2)c1
GI50 (Hs-578T): 0.0743 µM (active)
GI50 (U-251): 0.0693 µM (active)
GI50 (LOX IMVI): 0.0687 µM (active)
GI50 (OVCAR-3): 0.0369 µM (active)
GI50 (EKVX): > 16.6 µM (inactive)
GI50 (A498): 0.131 µM (active)
GI50 (CAKI-1): 0.0546 µM (active)
GI50 (RPMI-8226): 0.0378 µM (active)
GI50 (PC-3): 0.065 µM (active)
GI50 (MDA-MB-231): 0.338 µM (active)
GI50 (SK-MEL-5): 0.0495 µM (active)
GI50 (HT-29): 0.0908 µM (active)
GI50 (SN12C): 0.143 µM (active)
GI50 (SK-MEL-28): 0.0918 µM (active)
GI50 (SF-295): 0.0687 µM (active)
GI50 (HCT-15): 0.114 µM
GI50 (SF-268): 0.165 µM (active)
GI50 (HCC 2998): 0.164 µM (active)
GI50 (ACHN): 0.127 µM (active)
GI50 (MDA-MB-435): 0.0155 µM (active)
GI50 (HOP-62): 0.0809 µM (active)
GI50 (OVCAR-8): 0.158 µM (active)
GI50 (SK-OV-3): 0.152 µM (active)
GI50 (HL-60): 0.0211 µM (active)
GI50 (HCT-116): 0.0469 µM (active)
GI50 (IGROV-1): 0.228 µM (active)
GI50 (786-0): 0.102 µM (active)
GI50 (SR): 0.0292 µM (active)
GI50 (SW-620): 0.0488 µM (active)
GI50 (HOP-92): 0.469 µM (active)
GI50 (KM12): 0.0887 µM (active)
GI50 (NCI/ADR-RES): 0.0341 µM (active)
GI50 (T47D): 30.5 µM (inactive)
GI50 (OVCAR-5): 1.33 µM (inactive)
GI50 (TK-10): 12.9 µM (inactive)
GI50 (OVCAR-4): 6.17 µM (inactive)
GI50 (DU-145): 0.358 µM (active)
GI50 (RXF 393): 0.0698 µM (active)
GI50 (SNB-75): 33.5 µM (inactive)
GI50 (M14): 0.0443 µM (active)
GI50 (UACC-257): 6.92 µM (inactive)
GI50 (MDA-N): 0.0144 µM (active)
GI50 (A549): 0.162 µM (active)
GI50 (NCI-H522): 0.0577 µM (active)
GI50 (K562): 0.0419 µM (active)
GI50 (Malme-3M): 2.25 µM (inactive)
GI50 (MCF7): 0.484 µM (active)
GI50 (UACC-62): 0.0589 µM (active)
GI50 (SK-MEL-2): 0.757 µM (active)
GI50 (UO-31): 0.313 µM (active)
GI50 (NCI-H226): 0.08 µM (active)
GI50 (MOLT-4): 0.0991 µM (active)
GI50 (CCRF-CEM): 0.0484 µM (active)
GI50 (NCI-H23): 0.254 µM (active)
GI50 (NCI-H460): 0.0783 µM (active)
GI50 (COLO 205): 0.113 µM (active)
GI50 (BT-549): 2.17 µM (inactive)
GI50 (SF-539): 0.0348 µM (active)
GI50 (SNB-19): 0.122 µM (active)
